Assay results published in ChEMBL document CHEMBL3045978, “Sensitivity of Botrytis cinerea to chitosan and acibenzolar-S-methyl” (Pest Manag Sci, 2010).
Converted amounts (≈) assume the structure as drawn. The source made the active and inactive calls. The calls are words filed in the database; no cut-off is given here.

What was measured:
Botrytis cinerea [1] = test: Antifungal activity against Botryotinia fuckeliana infected grape assessed as decrease in lesion diameter at 3 mg/ml applied by dipping 24 hr prior to infection measured after 4 days at 4 degC relative to untreated-control; type: functional, organism-based
Botrytis cinerea [2] = test: Growth inhibition of Botryotinia fuckeliana at 4 mg/ml after 4 days relative to control; type: functional; conditions: 96 h, read-out: GI
Botrytis cinerea [3] = test: Antifungal activity against Botryotinia fuckeliana infected grape assessed as lesion diameter at 3 mg/ml applied by dipping 24 hr prior to infection measured after 4 days at 24 degC (reference value: 30.56 mm); type: functional
Botrytis cinerea [4] = test: Growth inhibition of Botryotinia fuckeliana at 5 mg/ml after 4 days relative to control; type: functional; conditions: 96 h, read-out: GI
Botrytis cinerea [5] = test: Growth inhibition of Botryotinia fuckeliana at 0.5 mg/ml after 4 days relative to control; type: functional; conditions: 96 h, read-out: GI
Botrytis cinerea [6] = test: Antifungal activity against Botryotinia fuckeliana infected in grape assessed as lesion diameter at 1 mg/ml applied by dipping 24 hr prior to infection measured after 4 days at 24 degC (reference value: 30.56 mm); type: functional
Botrytis cinerea [7] = test: Antifungal activity against Botryotinia fuckeliana assessed as mycelial growth after 4 days; type: functional, organism-based; conditions: 96 h
Botrytis cinerea [8] = test: Antifungal activity against Botryotinia fuckeliana infected grape assessed as decrease in lesion diameter at 1 to 3 mg/ml applied by dipping 24 hr prior to infection measured after 5 to 7 days at 4 degC relative to untreated-control; type: functional, organism-based
Botrytis cinerea [9] = test: Antifungal activity against Botryotinia fuckeliana assessed as mycelial growth at 3 mg/ml after 4 days (reference value: 85 mm); type: functional
Botrytis cinerea [10] = test: Antifungal activity against Botryotinia fuckeliana infected grape assessed as decrease in lesion diameter at 1 mg/ml applied by dipping 24 hr prior to infection measured after 4 days at 4 degC relative to untreated-control; type: functional, organism-based
Botrytis cinerea [11] = test: Antifungal activity against Botryotinia fuckeliana infected grape assessed as decrease in lesion diameter at 3 mg/ml applied by dipping 24 hr prior to infection measured after 3 days at 4 degC relative to untreated-control; type: functional, organism-based
Botrytis cinerea [12] = test: Antifungal activity against Botryotinia fuckeliana infected grape assessed as decrease in lesion diameter at 3 mg/ml applied by dipping 24 hr prior to infection measured after 3 days at 24 degC relative to untreated-control; type: functional, organism-based
Botrytis cinerea [13] = test: Growth inhibition of Botryotinia fuckeliana at 1 mg/ml after 4 days relative to control; type: functional; conditions: 96 h, read-out: GI
Botrytis cinerea [14] = test: Antifungal activity against Botryotinia fuckeliana assessed as mycelial growth at 2 mg/ml after 4 days (reference value: 85 mm); type: functional

**Q.** For `CSC(=O)c1cccc2nnsc12` [ACIBENZOLAR-S-METHYL], which Activity (Botrytis cinerea [1]) is on record?
**A.** Active

**Q.** What about the inhibition of growth at 4000 µg/mL (Botrytis cinerea [2]) of the same molecule?
**A.** 55.6%

**Q.** And the Activity (Botrytis cinerea [3])?
**A.** 16.99 mm

**Q.** What about the inhibition of growth at 5000 µg/mL (Botrytis cinerea [4]) of the same molecule?
**A.** 66.2%

**Q.** What about the inhibition of growth at 500 µg/mL (Botrytis cinerea [5]) of the same molecule?
**A.** 16.3%

**Q.** What about the Activity (Botrytis cinerea [6]) of the same molecule?
**A.** 17.94 mm

**Q.** What about the EC50 (Botrytis cinerea [7]) of the same molecule?
**A.** 3440 µg/mL (≈ 16.4 mM)

**Q.** And the Activity (Botrytis cinerea [8])?
**A.** Active

**Q.** What about the Activity (Botrytis cinerea [9]) of the same molecule?
**A.** 44.72 mm

**Q.** What about the Activity (Botrytis cinerea [10]) of the same molecule?
**A.** Active

**Q.** What about the Activity (Botrytis cinerea [11]) of the same molecule?
**A.** Active

**Q.** And the Activity (Botrytis cinerea [12])?
**A.** Active

**Q.** What about the inhibition of growth at 1000 µg/mL (Botrytis cinerea [13]) of the same molecule?
**A.** 23.1%

**Q.** And the Activity (Botrytis cinerea [14])?
**A.** 54.26 mm
